Measured values as given in US20070270348A1, “Compositions and Methods for Modulating Insulin-Activated Nitric Oxide Synthase” (priority 2004, published 2007).
“Also recorded” adds a separate entry of the source. Read-outs that look alike come from different tables or passages of the source. Blank lines part the entries; values can stand above or below the molecule they belong to. Ends that are not written are not given here.

Columns and labels:
human erythrocytes = experiment: Stimulation of nitric oxide synthesis from l-arginine in human erythrocyte suspension; assay type: cell-based
Procedure: Stimulation of nitric oxide synthesis from l-arginine by allimin in human erythrocytes was shown by incubation of a human erythrocyte suspension with different concentrations of purified allimin.
Fractions (1.5 ml each) were collected and the ability of each fraction to stimulate nitric oxide synthesis from l-arginine in human erythrocytes was determined.
The stimulation of nitric oxide synthesis was determined by assaying 0.1 ml of aqueous extracts of garlic or benzene purified allimin or different fractions from the SEPHADEX® column to erythrocyte suspensions in Kreb's buffer, pH 7.4. The formation of nitric oxide in the reaction mixture was quantitated by the conversion of oxyhemoglobin to methemoglobin. Quantitative amounts of nitric oxide in the reaction mixture were confirmed independently by chemiluminescence technique. Briefly 1.0 ml of the reaction supernatant was treated with 15 mM (final concentration) of oxyhemoglobin under N2. The spectral changes at 650, 630 and 575 nm due to the conversion of oxyhemoglobin to methemoglobin was continuously monitored by using a scanning BECKMAN spectrophotometer to quantitate nitric oxide formation using greater than 99% percent pure preparation of nitric oxide.
Blood was collected from healthy male and female volunteers, between the ages of 25-50 years, who had not taken any medication for at least for 14 days prior to the donation of blood. The blood was anti-coagulated by adding 1 volume 130 mM sodium citrate to 9 volumes of blood, mixed by gentle inversion, and the erythrocyte suspension was prepared.

[1] = system: mice epitrochlearis muscle; experiment: Glucose transport activity in epitrochlearis muscle; assay type: cell-based; settings: insulin 200 μU/ml, allimin 50 μg/ml, NAME 10 μg/ml, mean ± SD
Procedure: (§1) The in vitro effect of allimin on glucose transport and glucose oxidation was compared with that of insulin in mice epitrochlearis muscle which is reported to be a model target tissue for insulin action. […] Addition of NAME to the incubation mixture inhibited the insulin-mimicking effect of allimin on both glucose transport and glucose oxidation. In another study, membranes from epitrochlearis muscle were prepared and the effect of allimin on the activation of the membrane tyrosine kinase and PI3 kinase were determined by incubating the membrane preparation with either insulin or allimin.
Mice epitochlearis muscle and the membrane of the muscle were prepared. Glucose transport activity was determined by incubating […] of epitochlearis muscle in Krebs-Ringer buffer, pH 7.4, in the presence of either insulin ([…]) or allimin ([…]) using a 2-deoxy D-^14C glucose. Glucose oxidation was determined by incubating […] of epitrochlearis muscle in Krebs-Ringer buffer, pH 7.4, in the presence of either insulin or allimin as indicated using U-14C glucose. Insulin- or allimin-induced activation of tyrosine kinase and PI3 kinase activities of the membrane preparation were determined using anti-phosphotyrosine antibody and PI3 kinase antibody, respectively, as described. Results shown in Table 4 are mean ±SD of 5 to 6 experiments using different animals.

[2] = system: non-diabetic and alloxan-induced diabetic mice; experiment: Plasma nitric oxide level after oral administration in mice; assay type: in vivo
Procedure: The effect of oral administration of allimin on the plasma nitric oxide level in diabetic and non-diabetic mice was determined using alloxan-induced diabetic mice as compared to normal non-diabetic mice. […] Allimin was orally administered (75 μg/kg body weight) to non-diabetic and alloxan-induced diabetic mice. The plasma nitric oxide level was measured on different days. Results were obtained from 10 mice in each group in triplicate. While the plasma nitric oxide level in the diabetic mice was 0.1±0.02 nmol/ml, the nitric oxide level in the non-diabetic mice was 0.75±0.05 nmol/ml (p<0.05). Upon oral administration of allimin (75 micrograms/kg body weight), the plasma nitric oxide level was increased to 0.45±0.05 nmol/ml within 24 hours and continued to increase thereafter, to a maximum of 0.8±0.1 nmol/ml on the third day. On the fourth day, the plasma nitric oxide level began to gradually decrease. On the sixth day, the plasma nitric oxide level returned to the pretreatment level in the diabetic mice.
A total of 60 mice were studied.

mouse erythrocytes = experiment: Nitric oxide production in erythrocytes of mice injected with EAC cells; settings: for NO produced by erythrocytes: EAC mice, allimin 75 micrograms/kg/day oral
Procedure: Using a well-established mouse model for anti-neoplastic drug testing (Hartveit et al. (1970) Acta. Pathol. Microbiol. Scand. 78:516-524), the effects of oral administration of allimin on the production of nitric oxide in mouse erythrocytes was examined. Blood was drawn from the tail vein of Swiss albino mice (2 months of age) and was anti-coagulated by adding sodium citrate to the blood sample. The erythrocyte suspension was prepared according to standard methods (Ray et al. (1986) Biochim. Biophys. Acta. 856:421-427). […] The formation of nitric oxide in the reaction mixture was quantitated by the conversion of oxyhemoglobin to methemaglobin (Jia et al. (1996) Nature 380:221-226) and verified by chemiluminescence techniques (Sinha et al. (1999) Life Sci. 265:2687-2696). In addition to normal or control mice, ascitic carcinoma was induced in Swiss albino mice by injecting approximately 10^6 Ehrlich's ascitic carcinoma cells (EAC cells) into the peritoneal cavity of mice (Hartveit et al. (1970) Acta. Pathol. Microbiol. Scand. 78:516-524). Animals were divided into two groups, one group receiving laboratory chow alone and the other receiving allimin (75 micrograms/kg body weight/day) along with laboratory chow. Animals in each group were given the respective diets for 10 days before both groups were injected with EAC cells. Dietary treatment then continued during ascites development such that an increase of an EAC cell count to 5×10^6 cells/ml was achieved.
For the preparation of erythrocyte suspensions from mice, blood was drawn from the tail vein and anti-coagulated by adding sodium citrate to the blood sample and a suspension was made as described by Ray et al. ((1986) Biochim. Biophys. Acta 856:421-427).

[3] = system: mice epitrochlearis muscle; experiment: Glucose oxidation in epitrochlearis muscle; assay type: cell-based; settings: insulin 200 μU/ml, allimin 50 μg/ml, NAME 10 μg/ml, mean ± SD
Procedure: as §1
The effect of allimin on the oxidation of glucose was compared with that of insulin. […] Glucose oxidation was determined.
(§2) Mice epitochlearis muscle and the membrane of the muscle were prepared. Glucose transport activity was determined by incubating […] of epitochlearis muscle in Krebs-Ringer buffer, pH 7.4, in the presence of either insulin ([…]) or allimin ([…]) using a 2-deoxy D-^14C glucose. Glucose oxidation was determined by incubating […] of epitrochlearis muscle in Krebs-Ringer buffer, pH 7.4, in the presence of either insulin or allimin as indicated using U-14C glucose. […]

[4] = system: alloxan-induced diabetic mice; settings: for duration of euglycemia / normal glucose levels after one dose: single oral bolus; for plasma glucose level: oral allimin
Procedure: To determine whether the increased plasma nitric oxide level achieved through the oral administration of allimin would result in the decrease of elevated plasma glucose levels in diabetic mice, the plasma glucose level was continuously monitored. […] In a further study, diabetic mice were injected with insulin (200 μunits/25 g) in their hind leg muscle instead of oral administration of allimin.
Inbred albino mice of both sexes were raised in an institutional facility from birth to age 2 months and weighed between 20-25 grams. These mice were allowed free access to feed and sterile water under 12 hour cycles of alternating light and dark. A total of 60 mice were studied. Group I consisted of 20 mice that were divided into 4 subgroups of 5 mice per subgroup. […] Group II consisted of 20 mice that were divided in 4 groups, 5 mice in each subgroup. All of the mice were made diabetic, one of the diabetic subgroup of mice received insulin and the second diabetic subgroup received oral administration of allimin.
Alloxan was used to induce diabetes in mice in accordance with standard methods. Blood glucose levels were determined by using glucose oxidase strips in a glucometer. The mice were considered to be diabetic when the blood glucose level after overnight fasting were 250-300 mg/dl as compared to 70-80 mg/dl in non-diabetic mice. […] When these diabetic mice were fed ad libitum, the blood glucose level increased to 400-450 mg/dl after 2 hours of feeding.

EAC cells = experiment: Viability of EAC cells in peritoneal fluid; assay type: in vivo, Swiss albino mice
Procedure: Experiments were performed to determine the effects of allimin on the viability of EAC cells, a measure of the anti-neoplastic activity of allimin. Total EAC count (dead+viable cells) in peritoneal fluid was determined after 14 days of injection of EAC in the allimin treated and the untreated mice. […] It was noted that 25% of the viable EAC in the fluid of allimin-treated mice were twice as large (size) as compared to those in the untreated mice. This increase in cell size is indicative of the onset of death and the loss of the ability to regulate osmotic pressure (Ballas (1999) Merck Manual, Merck Research Laboratories, Whitehouse Station, N.J., pp. 1002-1023). The cellular basis for the decreased viability of the carcinoma cells in the allimin-treated mice was tested using a DNA fragmentation assay (Liu et al. (2000) Nucleic Acids Res. 28:4180-4188).

PI3 kinase = PI3 kinase activation of muscle membrane; assay type: biochemical, mice; settings: insulin 200 μU/ml, allimin 50 μg/ml, none = 100, mean ± SD
Procedure: as §1
The activation of PI3 kinase of mice epitrochlearis muscle membrane either by allimin or insulin was determined using PI3 kinase antibody. […] The PI3 kinase activity was determined by CHCl3—CH3OH extraction and HPLC.
as §2

membrane tyrosine kinase = experiment: Membrane tyrosine kinase activation; assay type: biochemical, mice; settings: insulin 200 μU/ml, allimin 50 μg/ml, none = 100, mean ± SD
Procedure: as §1
The effect of allimin on the activation of epitrochlearis muscle membrane was determined using monoclonal anti-phosphotyrosine kinase antibody, Glu^80 Tyr^80 copolymer, and [^32P]-ATP and compared with that of insulin.
as §2

[5] = system: Ehrlich's ascitic carcinoma cells (EAC cells); experiment: Survival and body weight of mice with Ehrlich's carcinoma ascites; settings: daily allimin
Text: In addition to normal or control mice, ascitic carcinoma was induced in Swiss albino mice by injecting approximately 10^6 Ehrlich's ascitic carcinoma cells (EAC cells) into the peritoneal cavity of mice (Hartveit et al. (1970) Acta. Pathol. Microbiol. Scand. 78:516-524). Animals were divided into two groups, one group receiving laboratory chow alone and the other receiving allimin (75 micrograms/kg body weight/day) along with laboratory chow. Animals in each group were given the respective diets for 10 days before both groups were injected with EAC cells. Dietary treatment then continued during ascites development such that an increase of an EAC cell count to 5×10^6 cells/ml was achieved.

[6] = system: ADP-induced platelet aggregation; experiment: ADP-induced platelet aggregation in platelet rich plasma; assay type: cell-based; settings: 40 nM, 30 minutes at 23° C., 6 μM ADP
Procedure: Given the role of nitric oxide in the function of platelets it is was determined whether allimin could modulate platelet aggregation. Platelet Rich Plasma (PRP) was isolated from citrated blood and incubated with […] Allimin for 30 minutes at 23° C. Subsequently, 6 μM adenosine 5′-diphosphate (ADP) was added and inhibition of ADP-induced platelet aggregation was recorded and compared with a control.

Molecule: COC(=O)[C@@H](N)CCCNC(=N)N[N+](=O)[O-] [NAME, NG-nitro L-arginine methyl ester, reference compound]
inhibition of allimin-stimulated nitric oxide synthesis (human erythrocytes; 10 μM NAME added to reaction mixture with allimin): completely inhibited; also recorded: complete inhibition

Molecule: Allimin (XMIPTNGEGLYAGQSLDVEQYKFIMRPDDNLVXYX; X: residue not identified in the source; listed as Allium sp.)
Glucose transport [1]: 82 ± 6 nmol/g protein/minute
duration of elevation of plasma nitric oxide ([2]; diabetic mice, one time oral bolus dose): about five days; also recorded: four to five days
day plasma nitric oxide level returned to pretreatment level ([2]; diabetic mice, single oral 75 micrograms/kg): sixth day
plasma nitric oxide level, maximum ([2]; diabetic mice, single oral 75 micrograms/kg, third day): 0.8 ± 0.1 nmol/mL
plasma nitric oxide level ([2]; diabetic mice, single oral 75 micrograms/kg, within 24 hours, pretreatment 0.1±0.02): 0.45 ± 0.05 nmol/mL
day plasma nitric oxide level decreased to pretreatment level ([2]; non-diabetic mice, oral feeding): fourth day
nitric oxide production from erythrocytes restored to (mouse erythrocytes; allimin fed 10 days after the carcinogenic insult, 4.02% without): 92.78%
NO produced by erythrocytes (mouse erythrocytes; day 1): 0.569 ± 0.02 nmol NO produced/10^8 cells/hour
NO produced by erythrocytes (mouse erythrocytes; day 5): 0.392 ± 0.01 nmol NO produced/10^8 cells/hour
NO produced by erythrocytes (mouse erythrocytes; day 10): 0.408 ± 0.02 nmol NO produced/10^8 cells/hour
NO produced by erythrocytes (mouse erythrocytes; day 15): 0.440 ± 0.01 nmol NO produced/10^8 cells/hour
NO produced by erythrocytes (mouse erythrocytes; day 20): 0.498 ± 0.02 nmol NO produced/10^8 cells/hour
NO produced by erythrocytes (mouse erythrocytes; day 25): 0.532 ± 0.02 nmol NO produced/10^8 cells/hour
NO produced by erythrocytes (mouse erythrocytes; day 30): 0.528 ± 0.03 nmol NO produced/10^8 cells/hour
reduction of nitric oxide production in erythrocytes (mouse erythrocytes; twenty days after EAC injection, dietary allimin, 86.72% without): 12.48%
concentration at which synthesis of nitric oxide was maximally stimulated (human erythrocytes; human erythrocyte suspension): 8 nM
Specific Activity (nmol NO/mg/h) (human erythrocytes; purification step of garlic extract, stimulation of NO synthesis): 563.75 nmol NO/mg/h
Glucose Oxidation [3]: 306 ± 82 nmol/g protein/minute
duration of euglycemia / normal glucose levels after one dose ([4]; diabetic animals): up to four or five days
duration of euglycemia / normal glucose levels after one dose ([4]; diabetic animals, listed as allimin): four to five consecutive days
plasma glucose level ([4]; diabetic mice, next four days): 120 to 130 mg/dL
plasma glucose level ([4]; diabetic mice, sixth day): above 350 mg/dl
plasma glucose level ([4]; diabetic mice, within next 12 hours, initial 470±20): 120 ± 10 mg/dL
total EAC count (dead+viable cells) in peritoneal fluid (EAC cells; 14 days after injection of EAC): 7×10^6 cells/ml
dead EAC count in peritoneal fluid (EAC cells; 14 days after injection of EAC, untreated 3×10^4): 2×10^5 cells/ml
pathway of EAC cell death (DNA fragmentation assay) (EAC cells; oral allimin): induced the necrotic pathway
viable EAC twice as large as in untreated mice (EAC cells; peritoneal fluid of treated mice): 25%
PI3 kinase activation (PI3 kinase): 187 ± 12 % activation
Tyrosine kinase activation (membrane tyrosine kinase): 215 ± 10 % activation
survival at 20 days ([5]; controls succumbed by day 20): survived the EAC carcinogenic insult at 20 days
mice surviving at least 40 days ([5]; p<0.01): Ten percent
inhibition of ADP-induced platelet aggregation [6]: potent inhibitor of platelet aggregation

Tyrosine kinase activation (membrane tyrosine kinase): 210 ± 18 % activation
Molecule: Insulin: Insulin (trade name HUMULIN, obtained from Eli Lilly) [reference compound]
Glucose transport [1]: 75 ± 4 nmol/g protein/minute
Glucose Oxidation [3]: 278 ± 80 nmol/g protein/minute
duration of control of hyperglycemia ([4]; diabetic animals, single intramuscular injection): less than 24 hours
blood glucose level after injection ([4]; diabetic mice, 200 μunits/25 g in hind leg muscle, within next 24 hours): 350 ± 20 mg/dL
effect of oral administration on elevated blood glucose level ([4]; diabetic mice, oral): no effect
PI3 kinase activation (PI3 kinase): 155 ± 10 % activation
